This is an account of results in patent US10953042B2, “Vanadium insulin-mimetics, methods of preparation, and methods for treatment of diabetes” (The University of Trinidad and Tobago, priority 2017, dated 2021).

The subject of data set [1] is STZ-induced diabetic rats. The settings on record: for blood glucose level: 75 mg/kgbw intraperitoneal once every five days.
Description: Healthy adult male albino Rattus norvegicus Wistar rats, weighing 170-200 g were procured from Sri Raghavendra Enterprises, Bangalore, Karnataka, India. Studies were conducted in accordance with the guidance for the care and standard experimental animal ethical protocols. Animals were acclimated for a week, maintained at room temperature of 25±2° C. with 12-h dark-light cycle and given tap water and a standard rodent pellet diet ad libitum.
Six (6) groups with six rats each were used. Group I consisted of control animals and diabetes was induced in 12 hour fasted rats in Groups II-VI by a single intraperitoneal 60 mg/kgbw dose of STZ dissolved in freshly prepared 0.1 mol/L citrate buffer (pH 4.5). Blood samples obtained by sequential snipping of the tail and blood glucose levels measured using an ACCU-CHECK® glucometer on a daily basis. […] Group II became the positive control.
The dose-response of the drug was monitored for a period of 30 and 90 days using differential grades of drug at doses of 1, 10, 25, 50, 75, and 100 mg/kgbw administered once every five days. On the fifth day after the first administration, blood was collected and blood glucose levels measured using an ACCU-CHECK® glucometer. Subsequently each group was given its respective second and subsequent doses through intraperitoneal injection.
(§1) The following values were determined spectrophotometrically: (a) daily blood glucose levels (via Accu-check glucometer kit, Roche Diagnostics India); (b) hepatic glycogen (see Seifter et al., (1950) Arch Biochem 25(1):191-200); (c) glycosylated hemoglobin (see Sudhakar and Pattabiraman (1981) Clin Chim Acta 109:267-274); (d) blood urea nitrogen (BUN); (e) serum creatinine (see Hare (1950) Proc Soc Exp Biol Med 74:148-151); and (f) hepatic enzymes (AST, ALT) (see Reitman and Frankel (1957) Am J Clin Pathol 28:56-63).
(§2) Biostatistical analysis was conducted using SPSS 20.0 software. Analysis of variance (one-way ANOVA) was performed with the Tukey HSD post hoc test.
Data set [2] concerns STZ-induced diabetic rats. The following applies: for blood glucose levels: 100 mg/kgbw oral once every five days.
Description: as §1, §2
The dose-response of the drug was monitored for a period of 30 and 90 days using drug doses of 100 and 200 mg/kgbw administered once every five days. Spectrophotometric measurements and statistical analysis were obtained as in Example 2.
Data set [3] deals with STZ induced diabetic mice. The procedure: Streptozotocin (STZ; 2-deoxy-2-(3-methyl-3-nitrosoureido)-D-glucopyranose), a diabetogenic agent having the ability to induce pancreatic β-cell toxicity, is one of the chemicals used worldwide to induce diabetes in a simple and convenient method.
Adult albino mice, Mus musculus, three months old, weighing 30±5 g were procured from Sri Raghavendra Enterprises, Bangalore and acclimatized to laboratory conditions (12:12 hr dark/light, 25±2° C.) for one week. During acclimatization and thereafter, mice were maintained on standard rodent pellet and tap water ad libitum in accordance with ethical guidelines for animal care and experimentation.
Six (6) groups with six mice each were used. […] Group II became the positive control. […] On the fifth day after the first administration, blood was collected by tail pricking and blood glucose levels measured using an ACCU-CHECK® glucometer on a daily basis. Subsequently each group was given its respective second and subsequent doses through intraperitoneal injection.

The conditions of data set [4]: free state; cited from earlier work.

Like-named read-outs stand apart in the source and are kept apart here.

As for “(Diaqua)(2,6-pyridine diacetyl-carboxylato)oxovanadium(IV) [Complex 1]”, the blood glucose level is 135 mg/dL in data set [1] (after 30 days); 118.7 mg/dL in data set [1] (three months (90 days), P<0.05); “stable and sustainable blood glucose level throughout the study” in data set [3] (250 mg/kgbw intraperitoneal, multiple doses once every 5 days); “irregularity in maintaining the reduced levels” in data set [3] (the other doses (50, 150, 300 mg/kgbw) intraperitoneal). Moreover, the insulin levels entry is on record as “significantly reducing insulin levels as compared to the control” in data set [1] (75 mg/kgbw intraperitoneal, compared to the control (FIG. 24)) and “significant reduction in insulin levels as compared to the control” in data set [2] (oral, compared to the control (FIG. 25)). For the same molecule, the glycogen level in data set [1] (75 mg/kgbw intraperitoneal, day 30, hepatic glycogen) was 2.01 mg/g tissue; in data set [1] (75 mg/kgbw intraperitoneal, day 90, hepatic glycogen), 2.00 mg/g tissue. In addition, the figures for the blood glucose levels in data set [2] (day 30) and in data set [2] (day 90) were 108 mg/dL and 102 mg/dL, respectively. In addition, the glycogen levels entry in data set [2] (oral (FIG. 18)) is on record as “significant effect on increasing the glycogen levels”. The hyperglycemic condition entry in data set [3] (250 mg/kgbw intraperitoneal, 30 days, data not shown) is “reduced the hyperglycemic condition in a steady state for a period of 30 days”.
Regarding `O=C(O)c1cccc(C(=O)O)n1` [dipicolinic acid, Pyridine-2,6-dicarboxylic acid], the toxicity result in data set [4] is “nontoxic”.
